Activity calls are given as the source filed them. The rule behind the calls is not given here.
Legend:
COLO 205 = test: Growth inhibition of human COLO 205 cells measured after 24 to 72 hrs by SRB method; format: functional; conditions: time 24-72 hrs
KM12 = test: Growth inhibition of human KM12 cells measured after 24 to 72 hrs by SRB method; format: functional; conditions: time 24-72 hrs
A549 [1] = test: Induction of apoptosis in human A549 cells assessed as decrease in caspase-3 expression measured after 48 hrs by Western blot analysis; format: functional, cell-based; conditions: dose <= 4.0 µM
A549 [2] = test: Induction of apoptosis in human A549 cells assessed as decrease in PARP expression measured after 48 hrs by Western blot analysis; format: functional, cell-based; conditions: dose <= 4.0 µM
A549 [3] = test: Induction of apoptosis in human A549 cells assessed as increase necrotic cell death at 1 to 4 uM measured after 48 hrs by annexin V-FITC/PI staining based flow cytometry analysis; format: functional; conditions: dose 1-4 µM
A549 [4] = test: Induction of apoptosis in human A549 cells assessed as increase in apoptotic cells measured after 48 hrs by annexin V-FITC/PI staining based flow cytometry analysis; format: functional, cell-based; conditions: dose 1-4 µM
A549 [5] = test: Induction of apoptosis in human A549 cells assessed as increase in cleaved PARP expression measured after 48 hrs by Western blot analysis; format: functional, cell-based; conditions: dose <= 4.0 µM
A549 [6] = test: cells; format: functional; conditions: Homo sapiens, time 24-72 hrs
Description: Antiproliferative activity against human A549 cells assessed as inhibition of cell growth at 10 uM measured after 24 to 72 hrs by SRB method relative to control

EKVX = test: cells; format: functional; conditions: Homo sapiens, time 24-72 hrs
Description: Antiproliferative activity against human EKVX cells assessed as inhibition of cell growth at 10 uM measured after 24 to 72 hrs by SRB method relative to control

HOP-62 = test: Antiproliferative activity against human HOP-62 cells assessed as inhibition of cell growth at 10 uM measured after 24 to 72 hrs by SRB method relative to control; format: functional; conditions: time 24-72 hrs
HOP-92 = test: cells; format: functional; conditions: Homo sapiens, time 24-72 hrs
Description: Antiproliferative activity against human HOP-92 cells assessed as inhibition of cell growth at 10 uM measured after 24 to 72 hrs by SRB method relative to control

NCI-H226 = test: cells; format: functional; conditions: Homo sapiens, time 24-72 hrs
Description: Antiproliferative activity against human NCI-H226 cells assessed as inhibition of cell growth at 10 uM measured after 24 to 72 hrs by SRB method relative to control

NCI-H23 = test: cells; format: functional; conditions: Homo sapiens, time 24-72 hrs
Description: Antiproliferative activity against human NCI-H23 cells assessed as inhibition of cell growth at 10 uM measured after 24 to 72 hrs by SRB method relative to control

NCI-H322M = test: Antiproliferative activity against human NCI-H322M cells assessed as inhibition of cell growth at 10 uM measured after 24 to 72 hrs by SRB method relative to control; format: functional; conditions: time 24-72 hrs
NCI-H460 = test: cells; format: functional; conditions: Homo sapiens, time 24-72 hrs
Description: Antiproliferative activity against human NCI-H460 cells assessed as inhibition of cell growth at 10 uM measured after 24 to 72 hrs by SRB method relative to control

NCI-H522 = test: Antiproliferative activity against human NCI-H522 cells assessed as inhibition of cell growth at 10 uM measured after 24 to 72 hrs by SRB method relative to control; format: functional; conditions: time 24-72 hrs
MCF7 = test: Antiproliferative activity against human MCF7 cells assessed as inhibition of cell growth at 10 uM measured after 24 to 72 hrs by SRB method relative to control; format: functional; conditions: time 24-72 hrs
MDA-MB-231 = test: Antiproliferative activity against human MDA-MB-231 cells assessed as inhibition of cell growth at 10 uM measured after 24 to 72 hrs by SRB method relative to control; format: functional; conditions: time 24-72 hrs
Hs-578T = test: Antiproliferative activity against human Hs-578T cells assessed as inhibition of cell growth at 10 uM measured after 24 to 72 hrs by SRB method relative to control; format: functional; conditions: time 24-72 hrs
BT-549 = test: Antiproliferative activity against human BT-549 cells assessed as inhibition of cell growth at 10 uM measured after 24 to 72 hrs by SRB method relative to control; format: functional; conditions: time 24-72 hrs
T47D = test: Antiproliferative activity against human T47D cells assessed as inhibition of cell growth at 10 uM measured after 24 to 72 hrs by SRB method relative to control; format: functional; conditions: time 24-72 hrs
MDA-MB-468 = test: Antiproliferative activity against human MDA-MB-468 cells assessed as inhibition of cell growth at 10 uM measured after 24 to 72 hrs by SRB method relative to control; format: functional; conditions: time 24-72 hrs
CCRF-CEM = test: Antiproliferative activity against human CCRF-CEM cells assessed as inhibition of cell growth at 10 uM measured after 24 to 72 hrs by SRB method relative to control; format: functional; conditions: time 24-72 hrs
HL-60 = test: Antiproliferative activity against human HL-60 cells assessed as inhibition of cell growth at 10 uM measured after 24 to 72 hrs by SRB method relative to control; format: functional; conditions: time 24-72 hrs
K562 = test: Antiproliferative activity against human K562 cells assessed as inhibition of cell growth at 10 uM measured after 24 to 72 hrs by SRB method relative to control; format: functional; conditions: time 24-72 hrs
MOLT-4 = test: Antiproliferative activity against human MOLT-4 cells assessed as inhibition of cell growth at 10 uM measured after 24 to 72 hrs by SRB method relative to control; format: functional; conditions: time 24-72 hrs
RPMI-8226 = test: Antiproliferative activity against human RPMI-8226 cells assessed as inhibition of cell growth at 10 uM measured after 24 to 72 hrs by SRB method relative to control; format: functional; conditions: time 24-72 hrs
SR = test: Antiproliferative activity against human SR cells assessed as inhibition of cell growth at 10 uM by measured after 24 to 72 hrs SRB method relative to control; format: functional; conditions: time 24-72 hrs
A549 [7] = test: Induction of apoptosis in human A549 cells assessed as increase in cleaved caspase-3 expression measured after 48 hrs by Western blot analysis; format: functional, cell-based; conditions: dose <= 4.0 µM
A549 [8] = test: Induction of apoptosis in human A549 cells assessed as increase in cleaved caspase-7 expression measured after 48 hrs by Western blot analysis; format: functional, cell-based; conditions: dose <= 4.0 µM
A549 [9] = test: Induction of cell cycle arrest in human A549 cells assessed as increase in number of cells in G2/M phase by flow cytometry analysis; format: functional, cell-based; conditions: dose 1-4 µM
A549 [10] = test: Induction of cell cycle arrest in human A549 cells assessed as decrease in number of cells in G0/G1 phase at 1 to 4 uM by flow cytometry analysis; format: functional, cell-based; conditions: dose 1-4 µM
A549 [11] = test: Induction of cell cycle arrest in human A549 cells assessed as decrease in cyclin A1 expression measured after 24 hrs by Western blot analysis; format: functional, cell-based; conditions: dose 1-4 µM
A549 [12] = test: Induction of cell cycle arrest in human A549 cells assessed as decrease in cyclin B1 expression measured after 24 hrs by Western blot analysis; format: functional, cell-based; conditions: dose 1-4 µM
A549 [13] = test: Induction of cell cycle arrest in human A549 cells assessed as decrease in cyclin H expression measured after 24 hrs by Western blot analysis; format: functional, cell-based; conditions: dose 1-4 µM
A549 [14] = test: Induction of cell cycle arrest in human A549 cells assessed as decrease in Cdc25c expression measured after 24 hrs by Western blot analysis; format: functional, cell-based; conditions: dose 1-4 µM
A549 [15] = test: Induction of cell cycle arrest in human A549 cells assessed as increase in p53 expression measured after 24 hrs by Western blot analysis; format: functional, cell-based; conditions: dose 1-4 µM
A549 [16] = test: Activation of Hippo signaling pathway in human A549 cells assessed as decrease in YAP incubated for 24 hrs by Western blotting analysis; format: cell-based; conditions: filed as activator, dose <= 4.0 µM
A549 [17] = test: Activation of Hippo signaling pathway in human A549 cells assessed as increase in […] at upto 4 uM incubated for 24 hrs by Western blotting analysis; format: cell-based; conditions: filed as activator
A549 [18] = test: Activation of Hippo signaling pathway in human A549 cells assessed as increase in p-MOB1/MOB1 ratio at upto 4 uM incubated for 24 hrs by Western blotting analysis; format: cell-based; conditions: filed as activator
A549 [19] = test: Inhibition of PI3K/AKT/mTOR signalling pathway in human A549 cells assessed as inhibition of P70S6K phosphorylation measured after 24 hrs by Western blot analysis; format: cell-based; conditions: dose <= 4.0 µM
SF-268 = test: Growth inhibition of human SF-268 cells measured after 24 to 72 hrs by SRB method; format: functional; conditions: time 24-72 hrs
SF-295 = test: Growth inhibition of human SF-295 cells measured after 24 to 72 hrs by SRB method; format: functional; conditions: time 24-72 hrs
MDA-MB-435 = test: Growth inhibition of human MDA-MB-435 cells measured after 24 to 72 hrs by SRB method; format: functional; conditions: time 24-72 hrs
SK-MEL-28 = test: Growth inhibition of human SK-MEL-28 cells measured after 24 to 72 hrs by SRB method; format: functional; conditions: time 24-72 hrs
ACHN = test: Growth inhibition of human ACHN cells measured after 24 to 72 hrs by SRB method; format: functional; conditions: time 24-72 hrs
A498 = test: Growth inhibition of human A498 cells measured after 24 to 72 hrs by SRB method; format: functional; conditions: time 24-72 hrs
SK-OV-3 = test: Growth inhibition of human SK-OV-3 cells measured after 24 to 72 hrs by SRB method; format: functional; conditions: pooled result: one value given for 7 cell lines, strains, targets or settings, time 24-72 hrs
PC-3 [20] = test: Growth inhibition of human PC-3 cells measured after 24 to 72 hrs by SRB method; format: functional; conditions: time 24-72 hrs
DU-145 [21] = test: Growth inhibition of human DU-145 cells measured after 24 to 72 hrs by SRB method; format: functional; conditions: time 24-72 hrs
PC-3 [22] = test: Potency index, ratio of enzalutamide GI50 to test compound GI50 for growth inhibition of human PC-3 cells measured after 24 to 72 hrs by SRB method; format: functional; conditions: time 24-72 hrs
DU-145 [23] = test: Potency index, ratio of enzalutamide GI50 to test compound GI50 for growth inhibition of human DU-145 cells measured after 24 to 72 hrs by SRB method; format: functional; conditions: time 24-72 hrs

COc1ccc(NC(=O)c2cccc(C3CCc4c(cc(OC)c(OC)c4OC)O3)c2)cc1 (configuration not stated)
GI50 (COLO 205): 2.4 µM
GI50 (KM12): 3.47 µM
Activity (A549 [1]): Dose-Dependent Effect
Activity (A549 [2]): Dose-Dependent Effect
Activity (A549 [3]): inactive
Activity (A549 [4]): Dose-Dependent Effect
Activity (A549 [5]): Dose-Dependent Effect
inhibition at 10 µM (A549 [6]): 67.9%
inhibition at 10 µM (EKVX): 53%
inhibition at 10 µM (HOP-62): 69.3%
inhibition at 10 µM (HOP-92): 102%
inhibition at 10 µM (NCI-H226): 52.5%
inhibition at 10 µM (NCI-H23): 47.9%
inhibition at 10 µM (NCI-H322M): 46.1%
inhibition at 10 µM (NCI-H460): 81.8%
inhibition at 10 µM (NCI-H522): 78.2%
inhibition at 10 µM (MCF7): > 60%
inhibition at 10 µM (MDA-MB-231): > 60%
inhibition at 10 µM (Hs-578T): > 60%
inhibition at 10 µM (BT-549): > 60%
inhibition at 10 µM (T47D): > 60%
inhibition at 10 µM (MDA-MB-468): > 60%
inhibition at 10 µM (CCRF-CEM): > 60%
inhibition at 10 µM (HL-60): > 60%
inhibition at 10 µM (K562): > 60%
inhibition at 10 µM (MOLT-4): > 60%
inhibition at 10 µM (RPMI-8226): > 60%
inhibition at 10 µM (SR): > 60%
Activity (A549 [7]): Dose-Dependent Effect
Activity (A549 [8]): Dose-Dependent Effect
Activity (A549 [9]): Dose-Dependent Effect
Activity (A549 [10]): Active
Activity (A549 [11]): Dose-Dependent Effect
Activity (A549 [12]): Dose-Dependent Effect
Activity (A549 [13]): Dose-Dependent Effect
Activity (A549 [14]): Dose-Dependent Effect
Activity (A549 [15]): Dose-Dependent Effect
Activity (A549 [16]): Dose-Dependent Effect
Activity (A549 [17]): Active
Activity (A549 [18]): Active
inhibition (A549 [19]): Dose-Dependent Effect
GI50 (SF-268): 5.13 µM
GI50 (SF-295): 2.51 µM
GI50 (MDA-MB-435): 0.52 µM
GI50 (SK-MEL-28): 4.07 µM
GI50 (ACHN): 4.27 µM
GI50 (A498): 1.38 µM
GI50 (SK-OV-3): 2.82 µM
GI50 (PC-3 [20]): 1.58 µM
GI50 (DU-145 [21]): 2.95 µM
fold change (FC) (PC-3 [22]): 12
fold change (FC) (DU-145 [23]): 12
